Measured values from US20250205168A1, “METHOD FOR PRODUCING NUCLEIC ACID-ENCAPSULATED LIPID NANOPARTICLES, METHOD FOR PRODUCING PHARMACEUTICAL COMPOSITION CONTAINING SAID LIPID NANOPARTICLES, AND METHOD FOR INTRODUCING NUCLEIC ACID INTO CELL OR TARGET CELL” (NOF Corporation, priority 2022, published 2025).
Entries after “also recorded” stand apart in the source; their conditions may differ.

How the values were obtained:
[1] = mRNA encapsulation rate (Ribogreen assay); assay type: physicochemical; settings: 37° C. 5 min
Procedure: The particle size, polydispersity index (PdI), and mRNA encapsulation rate of the obtained nucleic acid-encapsulated nanoparticles were analyzed. The particle size and PdI were measured by the dynamic light scattering method using a Zetasizer (registered trademark). The mRNA encapsulation rate was measured by the Ribogreen (registered trademark) assay. […]
The particle size, polydispersity index (PdI), and mRNA encapsulation rate of the obtained nucleic acid-encapsulated nanoparticles were analyzed. The particle size and PdI were measured by the dynamic light scattering method using a Zetasizer (registered trademark). The mRNA encapsulation rate was measured by the Ribogreen (registered trademark) assay. As a result, mRNA was encapsulated at any incubation temperature, and no difference in the encapsulation rate was observed. The particle size of the obtained nucleic acid-encapsulated nanoparticles tended to increase with increasing incubation temperature (see FIG. 24 and FIG. 25).
The particle size, polydispersity index (PdI), and mRNA encapsulation rate of the obtained nucleic acid-encapsulated nanoparticles were analyzed. The particle size and PdI were measured by the dynamic light scattering method using a Zetasizer (registered trademark). The mRNA encapsulation rate was measured by the Ribogreen (registered trademark) assay. As a result, the encapsulation rate of mRNA tended to decrease with increasing salt concentration of the buffer (see FIG. 34 and FIG. 35).
The particle size, polydispersity index (PdI), and mRNA encapsulation rate of the obtained nucleic acid-encapsulated nanoparticles were analyzed. The particle size and PdI were measured by the dynamic light scattering method using a Zetasizer (registered trademark). The mRNA encapsulation rate was measured by the Ribogreen (registered trademark) assay. As a result, mRNA was encapsulated (see Table 5).
The particle size, polydispersity index (PdI), and mRNA encapsulation rate of the obtained nucleic acid-encapsulated nanoparticles or nucleic acid-encapsulated nanoparticles prepared by freeze-dry technique in Comparative Example 1 were analyzed. The particle size and PdI were measured by the dynamic light scattering method using a Zetasizer (registered trademark). The mRNA encapsulation rate was measured by the Ribogreen (registered trademark) assay. […] In addition, the particle size of the nucleic acid-encapsulated nanoparticles was smaller than that of nucleic acid-encapsulated nanoparticles produced by the freeze-dry technique (see FIG. 14 and FIG. 15).
The particle size, polydispersity index (PdI), and mRNA encapsulation rate of the obtained nucleic acid-encapsulated nanoparticles or nucleic acid-encapsulated nanoparticles prepared by freeze-dry technique in Comparative Example 2, Comparative Example 3 were analyzed. The particle size and PdI were measured by the dynamic light scattering method using a Zetasizer (registered trademark). The mRNA encapsulation rate was measured by the Ribogreen (registered trademark) assay. […] In addition, the particle size of the nucleic acid-encapsulated nanoparticles was smaller than that of nucleic acid-encapsulated nanoparticles produced by the freeze-dry technique (see FIG. 36 and FIG. 37). In FIG. 36, FIG. 37 and FIG. 38, Comparative Example 2 in which the total flow rate during preparation of lipid nanoparticles was 1 mL/min, is shown as “freeze-dry (FR=1)”, and Comparative Example 3, in which the total flow rate was 16 mL/min, is shown as “freeze-dry (FR=16)”.
The particle size, polydispersity index (PdI), and mRNA encapsulation rate of the obtained nucleic acid-encapsulated nanoparticles (liquid) or nucleic acid-encapsulated nanoparticles produced using a microfluidic channel (MF) (LNP prepared with the same lipid composition and using MES buffer (20 mM, pH 6.5) containing nucleic acid and an ethanol solution of lipid) were analyzed. […]

HeLa cells = test: nucleic acid introduction into HeLa cells, luciferase luminescence (Steady-Glo, GloMax 20/20 luminometer); assay type: cell-based; settings: Example 10, particles produced using SS-OP, after 13 hr
Procedure: The nucleic acid-encapsulated nanoparticles obtained were applied to HeLa cells to evaluate the nucleic acid introduction efficiency. HeLa cells were seeded in D-MEM medium (high glucose) (containing L-glutamine and phenol red) (containing 10% FBS and 1% penicillin-streptomycin solution added) at 5×10^3 cells/100 μL in a 96-well flat-bottom transparent plate. The obtained nucleic acid-encapsulated particles were added such that the nucleic acid concentration in the medium was 0.02 μg/4 μL. After 16 hr, the amount of luciferase protein introduced was evaluated using the amount of luminescence. 100 μL of Steady-Glo (registered trademark) was added, and the cells were lysed by shaking for 5 min, and the amount of luminescence was quantified using a GloMax 20/20 luminometer. As a result, the introduction of luciferase protein was confirmed at any incubation temperatures, and no difference in in vitro activity was observed.
The nucleic acid-encapsulated nanoparticles obtained were applied to HeLa cells and the nucleic acid introduction efficiency was evaluated. […] After 13 hr, the amount of luciferase protein introduced was evaluated using the amount of luminescence. 100. μL of Steady-Glo (registered trademark) was added, and the cells were lysed by shaking for 5 min, and the amount of luminescence was quantified using a GloMax 20/20 luminometer. […]

[2] = Zeta potential by electrophoretic light scattering (Zetasizer); assay type: physicochemical; settings: Example 10; particles produced using SS-OP at pH and pH 5.5 compared to pH 6, pH 6.5 and pH 7; measured in MES pH 5-7
Procedure: Among the obtained nucleic acid-encapsulated nanoparticles, the particles produced using SS-OP were analyzed for Zeta potential. Zeta potential was measured by the electrophoretic light scattering method using Zetasizer (registered trademark) and using MES buffer (pH 5, pH 5.5, pH 6, pH 6.5 or pH 7).

[3] = Example 4, LNP in MES pH 5, 5.5, 6, 6.5 or 7, mRNA 1.5 μg/135 μL
[4] = Example 10, LNP and mRNA (3 μg/135 μL) in MES pH 5, 5.5, 6, 6.5 or 7

SMILES	encapsulation rate at higher pH, in words [1, 3]	encapsulation rate at higher pH, in words [1, 4]	in vitro activity (luciferase luminescence) by pH of production, in words (HeLa cells)	Zeta potential, in words [2]
CCCCCCCC/C=C\CCCCCCCC(=O)OCC(CN(C)C)OC(=O)CCCCCCC/C=C\CCCCCCCC (stereo not shown) [DODAP, 1,2-dioleoyloxy-3-dimethylaminopropane, reference compound]	decreased at pH 6, pH 6.5, and pH 7	decreased at pH 6.5 and pH 7		
CCCCCC=CCC=CCCCCCCCCC(CCCCCCCCC=CCC=CCCCCC)OC(=O)CCCN(C)C (stereo not shown) [MC3, heptatriaconta-6,9,28,31-tetraen-19-yl-4-(dimethylamino)butanoate, reference compound]	decreased at pH 6.5 and pH 7	decreased at pH 6.5 and pH 7		
CCCCCCCC/C=C\CCCCCCCC(=O)OCCC1CCN(CCSCSCCN2CCC(CCOC(=O)CCCCCCC/C=C\CCCCCCCC)CC2)CC1 [SS-OC]	decreased at pH 6, pH 6.5, and pH 7	decreased at pH 6.5 and pH 7		
CCCCCCCC/C=C\CCCCCCCC(=O)Oc1ccc(CC(=O)OCCC2CCN(CCSSCCN3CCC(CCOC(=O)Cc4ccc(OC(=O)CCCCCCC/C=C\CCCCCCCC)cc4)CC3)CC2)cc1 [SS-OP]	decreased at pH 6.5 and pH 7	decreased at pH 6.5 and pH 7	highest in vitro activity was observed at pH 6; also recorded: slightly decreasing at pH 6.5; also recorded: low activity was observed at pH 5, pH 5.5, and pH 7	higher values in a low pH environment
